# Results from the supplement of paper PMC12613149.
# Assays:
# [1] = reversed-phase LC retention time (C18, 15 min MeOH gradient); higher = more hydrophobic / later elution
# [2] = collision cross section (TIMS, N2 drift gas) of the primary ion; higher = larger gas-phase ion size
# [3] = ionization mode: ESI+, ion species: [M]+
# [4] = ionization mode: ESI+, ion species: [M+H]+
# [5] = ionization mode: ESI-, ion species: [M-H]-
Compound,"reversed-phase LC retention time [1, 3]","collision cross section [2, 3]","reversed-phase LC retention time [1, 4]","reversed-phase LC retention time [1, 5]","collision cross section [2, 4]","collision cross section [2, 5]"
COC[P+](c1ccccc1)(c1ccccc1)c1ccccc1 [(Methoxymethyl)triphenylphosphonium],10.6 min,170.42 Å²,,,,
"C[C@@H]1NC(C)(C)CO[C@@]1(O)c1cccc(Cl)c1 [(S,S)-Hydroxybupropion]",,,9.89 min,13.5 min,159.75 Å²,159.63 Å²
Nc1nc(NC2CC2)c2ncn([C@H]3C=C[C@@H](CO)C3)c2n1 [Abacavir],,,8 min,,168.31 Å²,
CC1=CC(=O)NS(=O)(=O)O1 [Acesulfame],,,,2.26 min,,122.01 Å²
CC(=O)Nc1ccc(O)cc1 [Acetaminophen],,,5.38 min,,130.01 Å²,
CC(=NC#N)N(C)Cc1ccc(Cl)nc1 [Acetamiprid],,,9.29 min,9.38 min,153.22 Å²,148.19 Å²
CCOCN(C(=O)CCl)c1c(C)cccc1CC [Acetochlor],,,15 min,,158.08 Å²,
CC(=O)Nc1ccc(S(=O)(=O)Nc2cc(C)on2)cc1 [Acetylsulfamethoxazole],,,9.53 min,6.92 min,169.12 Å²,165.1 Å²
c1ccc2nc3ccccc3cc2c1 [Acridine],,,8.73 min,,132.33 Å²,
O=c1c2ccccc2[nH]c2ccccc12 [Acridone],,,11.1 min,,136.53 Å²,
Nc1nc2c(ncn2COCCO)c(=O)[nH]1 [Acyclovir],,,3.16 min,3.13 min,148.26 Å²,146.78 Å²
COc1cc2c(c3oc(=O)c4c(c13)CCC4=O)C1C=COC1O2 (centres undefined) [Aflatoxin B1],,,11.4 min,,165.23 Å²,
CCCSc1ccc2[nH]c(NC(=O)OC)nc2c1 [Albendazole],,,13.1 min,14.2 min,165.21 Å²,165.62 Å²
C[C@]12CCC(=O)C=C1CC[C@@H]1[C@@H]2[C@@H](O)C[C@]2(C=O)[C@@H](C(=O)CO)CC[C@@H]12 [Aldosterone],,,16.5 min,11.9 min,204.03 Å²,182.17 Å²
NC12CC3CC(CC(C3)C1)C2 [Amantadine],,,8.82 min,,138.51 Å²,
CC(=O)OCC(=O)[C@@]12OC3(CCCC3)O[C@@H]1C[C@H]1[C@@H]3CCC4=CC(=O)C=C[C@]4(C)[C@@]3(F)[C@@H](O)C[C@@]12C [Amcinonide],,,15.6 min,,217.58 Å²,
CCNc1nc(NC(C)C)nc(SC)n1 [Ametryne],,,12.8 min,,155.28 Å²,
CCCCCCCCCCCCCC(=O)NCCC[N+](C)(C)CCCS(=O)(=O)O [Amidosulfobetaine-14],16.9 min,217.87 Å²,,,,
COc1cc(OC)nc(NC(=O)NS(=O)(=O)N(C)S(C)(=O)=O)n1 [Amidosulfuron],,,12.1 min,8.09 min,175.88 Å²,179.05 Å²
NC(N)=NC(=O)c1nc(Cl)c(N)nc1N [Amiloride],,,6.27 min,,149.53 Å²,
Nc1ccc(Oc2ccc(Cl)cc2Cl)cc1C(=O)O [Aminobifenox acid],,,15.4 min,13.2 min,173.06 Å²,169.52 Å²
CCNc1nc(Cl)nc(NC(C)C)n1 [Atrazine],,,12.8 min,,148.84 Å²,
c1ccc(/N=N/c2ccccc2)cc1 [Azobenzene],,,13.1 min,,138.4 Å²,
COC=C(C(=O)OC)c1ccccc1Oc1cc(Oc2ccccc2C#N)ncn1 [Azoxystrobin],,,13.8 min,,196.56 Å²,
COC(=O)[C@H](C)N(C(=O)Cc1ccccc1)c1c(C)cccc1C [Benalaxyl],,,15.6 min,,173.08 Å²,
CC(C)N1C(=O)c2ccccc2NS1(=O)=O [Bentazone],,,,7.56 min,,145.72 Å²
Nc1ccc(-c2ccc(N)cc2)cc1 [Benzidine],,,3.98 min,,155.46 Å²,

# Next, values leading:
"reversed-phase LC retention time [1, 3]","collision cross section [2, 3]","reversed-phase LC retention time [1, 4]","reversed-phase LC retention time [1, 5]","collision cross section [2, 4]","collision cross section [2, 5]",Compound
,,16.5 min,,228.68 Å²,,CCCCc1oc2ccccc2c1C(=O)c1cc(I)c(OCCN(CC)CC)c(I)c1 [Amiodarone]
,,7.75 min,,193.4 Å²,,CCN1CCCC1CNC(=O)c1cc(S(=O)(=O)CC)c(N)cc1OC (centres undefined) [Amisulpride]
,,13.1 min,,167.84 Å²,,CN(C)CCC=C1c2ccccc2CCc2ccccc21 [Amitriptyline]
,,11.3 min,,185.09 Å²,,CC(C)(C#N)c1cc(Cn2cncn2)cc(C(C)(C)C#N)c1 [Anastrozole]
,,10.3 min,10.1 min,232.7 Å²,224.84 Å²,O=c1cc(-c2ccc(O)cc2)oc2cc(O[C@@H]3O[C@H](CO)[C@@H](O)[C@H](O)[C@H]3O[C@@H]3OC[C@](O)(CO)[C@H]3O)cc(O)c12 [Apiin]
,,6.24 min,,157.6 Å²,,CC(C)NCC(O)COc1ccc(CC(N)=O)cc1 (centres undefined) [Atenolol]
,,15.1 min,14.6 min,232.51 Å²,228.86 Å²,CC(C)c1c(C(=O)Nc2ccccc2)c(-c2ccccc2)c(-c2ccc(F)cc2)n1CCC(O)CC(O)CC(=O)O (centres undefined) [Atorvastatin]
,,9.74 min,,138.83 Å²,,CC(C)Nc1nc(N)nc(Cl)n1 [Atrazine desethyl]
,,8.1 min,,132.48 Å²,,CCNc1nc(N)nc(Cl)n1 [Atrazine desisopropyl]
,,,0.98 min,,138.44 Å²,O=C(O)CCCCCCCC(=O)O [Azelaic acid]
,,12.7 min,,189.23 Å²,,CN1CCCC(n2nc(Cc3ccc(Cl)cc3)c3ccccc3c2=O)CC1 (centres undefined) [Azelastine]
,,10.9 min,,264.86 Å²,,CCC1OC(=O)C(C)C(OC2CC(C)(OC)C(O)C(C)O2)C(C)C(OC2OC(C)CC(N(C)C)C2O)C(C)(O)CC(C)CN(C)C(C)C(O)C1(C)O (centres undefined) [Azithromycin]
,,13 min,11.5 min,190.75 Å²,188.36 Å²,CO/C=C(/C(=O)O)c1ccccc1Oc1cc(Oc2ccccc2C#N)ncn1 [Azoxystrobin acid]
12.1 min,195.62 Å²,,,,,CCN(CCO)c1ccc(N=Nc2sc3cc(OC)ccc3[n+]2C)cc1 [Basic Blue 41]
,,,16.5 min,,223.83 Å²,CCC(=O)OCC(=O)[C@@]1(OC(=O)CC)[C@@H](C)C[C@H]2[C@@H]3CCC4=CC(=O)C=C[C@]4(C)[C@@]3(Cl)[C@@H](O)C[C@@]21C [Beclometasone dipropionate]
,,13.3 min,13.6 min,192.43 Å²,194.28 Å²,C[C@H]1C[C@H]2[C@@H]3CCC4=CC(=O)C=C[C@]4(C)[C@@]3(Cl)[C@@H](O)C[C@]2(C)[C@@]1(O)C(=O)CO [Beclomethasone]
,,,2.42 min,,125.05 Å²,O=S(=O)(O)c1ccccc1 [Benzenesulfonic acid]
16.3 min,211.12 Å²,,,,,CC(C)(C)CC(C)(C)c1ccc(OCCOCC[N+](C)(C)Cc2ccccc2)cc1 [Benzethonium]
